Laboratory results taken from publication PMC12670405, “Second-Generation AURKA-Targeting PROTACs: Structural Optimization toward in Vivo Degradation in Neuroblastoma” (Journal of Medicinal Chemistry, 2025).
Where two headings read alike, the source gives them in different places.

Key:
NGP = experiment: IncuCyte live-cell imaging, antiproliferative effect; assay type: cell-based; settings: Homo sapiens, 72 h
From the text: (§1) Human neuroblastoma cell lines NGP, IMR-32, SJNB-8, SK-N-BE(2)-C, SJNB-1, SK-N-SH and SK-N-AS, as well as benign immortalized cell lines RPE and HEK293T were either bought commercially or obtained through research laboratories. […] Screening for mycoplasma contamination occurred routinely on the cells. Human neuroblastoma cell lines SH-SY5Y_shABCB1 & SH-SY5Y_shNTC were generated by transduction with pLKO.1-ABCB1_TRCN0000059683 shRNA (Sigma MISSION SHCLND) or pLKO.1-puro NT shRNA (Sigma MISSION SHC002) vectors respectively (Supplementary Table S6), packaged using Lenti-X293T (Clontech). Transduced cells were selected with 2 μg/mL puromycin. These cells were cultured in DMEM 4.5 g/L D-Glucose, L-Glutamine and 110 mg/L Sodium Pyruvate (Gibco, #11995065) supplemented with 10% fetal bovine serum, 1× Antibiotic-Antimycotic solution (Sigma-Aldrich, #A5955) and 1× MEM nonessential amino acids (Sigma-Aldrich, #M7145). Incubation of all cells occurred at 37 °C and 5% CO2.
(§2) Neuroblastoma cells were seeded in 384-well plates at different densities ranging from 1200 to 5000 cells/well and allowed to adhere overnight. RPE and HEK293T were seeded at 200 and 600 cells/well, respectively. Compound treatment was performed using the D300e Digital Dispenser (Tecan) in duplicate or triplicate and cell confluency was monitored over time using the IncuCyte Live-cell imaging system (Sartorius). […] Mean normalized confluences were calculated from 3 individual experiments.
(§3) All dose–response curves were computed on GraphPad Prism using the Variable Slope (four parameters) equation. Absolute half-maximal degradation (DC50), growth inhibitory (GI50) and enzymatic inhibitory (IC50) concentrations, as well as inhibition constants (Ki) were derived from dose–response curves via interpolation. Statistical tests were performed on GraphPad Prism and detailed in the figure legends. Unless otherwise stated, “n” in the figure legends indicates the number of independent experiments conducted at different times.

CRBN = target: T1, CRBN (Homo sapiens, UniProt Q96SW2); experiment: CRBN binding assay (E3scan, Eurofins Discovery)
T1 construct: purchased Eurofins Discovery
T1 sequence (Q96SW2 whole entry): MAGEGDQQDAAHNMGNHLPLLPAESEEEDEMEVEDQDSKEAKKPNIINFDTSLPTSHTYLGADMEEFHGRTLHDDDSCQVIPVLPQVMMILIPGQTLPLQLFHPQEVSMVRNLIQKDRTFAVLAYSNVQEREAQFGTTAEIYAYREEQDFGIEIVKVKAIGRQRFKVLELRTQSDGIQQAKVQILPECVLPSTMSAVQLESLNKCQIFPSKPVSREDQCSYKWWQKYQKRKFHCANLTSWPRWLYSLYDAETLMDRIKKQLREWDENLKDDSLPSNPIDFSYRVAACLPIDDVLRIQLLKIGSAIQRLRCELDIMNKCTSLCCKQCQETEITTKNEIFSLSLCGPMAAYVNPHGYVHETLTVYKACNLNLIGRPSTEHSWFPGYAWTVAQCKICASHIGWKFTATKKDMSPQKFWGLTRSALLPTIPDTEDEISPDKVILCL
Description: (§4) AURKA, AURKB and CRBN binding assays were performed by Eurofins Discovery using the KdELECT Kinase Assay Panel (AURKA and AURKB), or the E3scan Ligand Binding Assay Technology (CRBN). More information can be found on the Eurofins Discovery Web site.
(§5) Graphs were generated using GraphPad Prism Software (version 10.1.2) or RStudio (R-4.3.2). All dose–response curves were computed on GraphPad Prism using the Variable Slope (four parameters) equation. Absolute half-maximal degradation (DC50), growth inhibitory (GI50) and enzymatic inhibitory (IC50) concentrations, as well as inhibition constants (Ki) were derived from dose–response curves via interpolation. Statistical tests were performed on GraphPad Prism and detailed in the figure legends. Unless otherwise stated, “n” in the figure legends indicates the number of independent experiments conducted at different times.

Plasma stability assay = assay type: in vitro ADME, CD-1 mouse; settings: for half-life at 1 μM: read-out: plasma t1/2
Description: (§6) Plasma and metabolic stability tests were performed by Eurofins Discovery. For the plasma stability assay, test compounds were incubated in CD-1 mouse plasma for 0, 0.5, 1, 1.5, and 2 h at 37 °C at a concentration of 1 μM. For the metabolic stability assay, test compounds were incubated at 37 °C in either (1) CD-1 mouse liver microsomes (MLM) (0.1 mg/mL) at a concentration of 0.1 μM for 0, 15, 30, 45, and 60 min or (2) CD-1 mouse hepatocytes (MH) (0.7 million viable cells/mL) at a concentration of 1 μM for 0, 0.5, 1, 1.5, and 2 h. At the respective time points, acetonitrile was added to the incubation mixture followed by centrifugation. Samples were analyzed by HPLC-MS/MS and peak areas were recorded for each analyte. Compound stability, expressed as the percentage of parent compound remaining, was calculated by comparing the peak area of the compound at each time point relative to that of the 0h time point. Percentage compound remaining is plotted as a function of time as a logarithmic curve. Half-life (t 1/2) is estimated from the slope of the initial linear range of the curve, assuming first-order kinetics. […] Both plasma and metabolic assay experiments were performed once with 2 replicate samples each.

[1] = Metabolic stability in mouse liver microsomes (MLM); assay type: in vitro ADME, CD-1 mouse; settings: CD-1
Description: as §6

[2] = Metabolic stability in mouse hepatocytes (MH); assay type: in vitro ADME, CD-1 mouse; settings: CD-1
Description: as §6

AURKA [3] = target: T2, AURKA (Homo sapiens, UniProt O14965); experiment: AURKA degradation, Simple Western; assay type: cell-based; parameters: Representative Western blot showing levels of endogenous proteins MDR1, MYCN, AURKA, and CRBN in untreated cell lines; endogenous in cells; host or cells: NGP, IMR-32, SJNB-8, SK-N-BE(2)-C, SK-N-SH, SK-N-AS, SJNB-1, RPE, HEK293T; settings: for pDC50: AURKA degradation; for DC50: read-out: AURKA DC50; for AURKA degradation (in words): IMR-32, 24h treatment;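 as to AURKA Degradation 24h @1000nM: measured in NGP neuroblastoma cells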;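 as to AURKA Degradation 24h @100nM: measured in NGP neuroblastoma cells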
T2 sequence (O14965 1-403): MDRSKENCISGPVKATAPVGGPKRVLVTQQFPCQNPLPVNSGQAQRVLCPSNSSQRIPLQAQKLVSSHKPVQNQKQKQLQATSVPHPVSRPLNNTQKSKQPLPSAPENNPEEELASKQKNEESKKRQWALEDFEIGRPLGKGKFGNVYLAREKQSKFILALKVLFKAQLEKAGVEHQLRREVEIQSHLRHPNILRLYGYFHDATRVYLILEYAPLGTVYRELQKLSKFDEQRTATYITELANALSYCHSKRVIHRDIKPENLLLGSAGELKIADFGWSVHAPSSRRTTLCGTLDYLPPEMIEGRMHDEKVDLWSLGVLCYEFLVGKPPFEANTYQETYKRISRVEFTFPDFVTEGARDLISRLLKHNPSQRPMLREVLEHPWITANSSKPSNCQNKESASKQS
Description: (§7) Cells were seeded in T-25 flasks at different densities ranging from 1 to 2 million cells per flask and allowed to adhere for 1–2 days. In experiments involving compound treatment, this was done by medium replacement containing the compound(s) of interest in their corresponding concentrations. In competition binding experiments, cells were first pretreated with an excess of MK-5108, thalidomide or MG-132 for 1 h by shaking gently at room temperature prior to addition of SK4454 or SK5527. All samples were normalized to contain the same percentage of DMSO as the negative DMSO controls. Cells were harvested on ice at their respective time points by scraping, washed with ice-cold PBS to collect remaining cells, and centrifuged (2500 rpm, 4 °C). A second washing and centrifugation step was performed prior to collection of the final cell pellets which were then snap-frozen in liquid nitrogen and kept frozen at −80 °C until further processing. Lysis of cell pellets occurred in cold RIPA buffer (0.5% w/v Sodium Deoxycholate, 150 mM NaCl, 50 mM TrisHCl pH 7.5, 0.1% w/v SDS, 1% w/v NP-40) supplemented with protease and phosphatase inhibitors (Roche, #11836145001, #04906845001) by rotating gently at 4 °C for 1h, followed by a centrifugation step for 10 min (10,000 rpm, 4 °C). The supernatant was collected and concentrations of the obtained protein lysates were measured using the Pierce BCA Protein Assay Kit (Thermo Fisher Scientific, #23227).
(§8) Simple Western analyses were performed with the Wes instrument (Bio-Techne) using the 12–230 kDa Wes Separation module and the EZ standard pack reagent 1 (Biotechne, #SM-W001, #PS-ST01EZ-8) following the manufacturer’s protocol. Protein lysates were loaded at 0.8 μg/μL under denaturing conditions (0.2 μg/μL for MYCN detection). Chemiluminescence peaks were generated by the Compass Software (Bio-Techne) and the area under the peaks calculated using the Gaussian fit method. Per lane, quantified data were always normalized to that of the loading control (Vinculin) prior to calculating fold changes relative to the negative DMSO control. Mean fold changes are calculated from 3 individual experiments. A list of the primary and secondary antibodies used can be found in the Supporting Information (Supplementary Table S7).
as §5

MYCN = MYCN protein levels, Simple Western; assay type: cell-based, human; settings: IMR-32
Description: as §7, §8, §5

IMR-32 = experiment: IncuCyte live-cell imaging, antiproliferative effect; assay type: cell-based; settings: Homo sapiens, IMR-32, 72 h; read-out: GI50
From the text: as §1, §2, §3

AURKA [4] = target: T2, AURKA; experiment: AURKA binding assay (KINOMEscan / KdELECT, Eurofins Discovery); parameters: purchased Eurofins Discovery
Description: as §4, §5

Row | SMILES | GI50 (NGP; read-out: GI50 72h, 72h) | GI50 (NGP; read-out: pGI50 (converted)) | Ki (CRBN) | half-life at 1 μM (Plasma stability assay; CD-1 mouse plasma, 1 μM, 37 °C) | plasma t1/2 (Plasma stability assay; plasma) | microsomal CLint at 0.1 μM [1] | hepatocyte CLint at 1 μM [2] | AURKA Degradation 24h @100nM (AURKA [3]) | AURKA Degradation 24h @1000nM (AURKA [3]) | pDC50 (AURKA [3]) | Dmax (AURKA [3]; NGP, 24 h treatment) | DC50 (AURKA [3]; NGP, 24 h treatment) | DC50 (AURKA [3]) | AURKA degradation activity (in words) (AURKA [3]; NGP, 24 h treatment) | half-life at 1 μM (Plasma stability assay; CD-1, mouse, plasma) | MYCN destabilization (in words) (MYCN) | GI50 (IMR-32) | AURKA binding (in words) (AURKA [4]) | AURKA degradation (in words) (AURKA [3]) | CRBN binding (in words) (CRBN)
1 | O=C1CCC(Nc2ccc(N3CCN(C4CN(C(=O)[C@]5(Cc6cccc(Nc7nccs7)n6)CC[C@@H](Oc6cccc(Cl)c6F)CC5)C4)CC3)nc2)C(=O)N1 (some centres unmarked) [PROTAC 20] | 19 nM | 19.1 nM | 3180 nM | > 2 h | > 2 h | 738 µL/min/mg | < 4.1 µL/min/1e6 cells | 90 | 90 | 8,76 | 94% | 2 nM | 1.7 nM |  |  |  |  |  |  | 
2 | O=C1CCN(Cc2ccc(C3CCN(CC4CCN(C(=O)[C@]5(Cc6cccc(Nc7nccs7)n6)CC[C@@H](Oc6cccc(Cl)c6F)CC5)CC4)CC3)nc2)C(=O)N1 [PROTAC 21] | 46 nM | 45.7 nM | 455 nM | > 2 h | > 2 h | 186 µL/min/mg | < 4.1 µL/min/1e6 cells | 78 | 82 | 7,97 | 85% |  | 10.8 nM | slightly reduced degradation potency compared to SK2188 |  |  |  |  |  | 
3 | O=C1CCN(c2ccc(N3CCN(CC4CCN(C(=O)[C@]5(Cc6cccc(Nc7nccs7)n6)CC[C@@H](Oc6cccc(Cl)c6F)CC5)C4)CC3)nc2)C(=O)N1 (some centres unmarked) [PROTAC 25] | 33 nM | 32.4 nM |  |  |  | 426 µL/min/mg | 13.6 µL/min/1e6 cells | 90 | 87 | 8,47 |  |  | 3.4 nM |  | > 2 h |  |  |  |  | 
4 | O=C1CCN(c2ccc(C3CCN(C4CN(C(=O)[C@]5(Cc6cccc(Nc7nccs7)n6)CC[C@@H](Oc6cccc(Cl)c6F)CC5)C4)CC3)nc2)C(=O)N1 [PROTAC 28] | 48 nM | 47.9 nM |  |  |  | 367 µL/min/mg | 13 µL/min/1e6 cells | 80 | 78 | 8,52 |  |  | 3 nM |  | > 2 h |  |  |  |  | 
5 | Cc1cc(Nc2ccc(F)c(CC3(C(=O)N4CCC(F)(CN5CCC(c6ccc(N7CCC(=O)NC7=O)cn6)CC5)CC4)CCN(Cc4cccc(Cl)c4F)CC3)n2)n[nH]1 [PROTAC 37] | 45 nM | 44.7 nM |  |  |  | 617 µL/min/mg | 4.5 µL/min/1e6 cells | 84 | 86 |  |  |  |  |  | > 2 h |  |  |  |  | 
6 | Cc1cc(N(C)c2ccc(F)c(CC3(C(=O)N4CCC(F)(CN5CCN(c6ccc(N7CCC(=O)NC7=O)cn6)CC5)CC4)CCN(Cc4cccc(Cl)c4F)CC3)n2)n[nH]1 [SK5527-AURi] |  |  |  |  |  |  |  |  |  |  |  |  |  |  |  | failed to destabilize MYCN | ~9000 nM | inability to bind | failed to degrade AURKA | 
7 | Cc1cc(Nc2ccc(F)c(CC3(C(=O)N4CCC(F)(CN5CCN(c6ccc(N7CCC(=O)N(C)C7=O)cn6)CC5)CC4)CCN(Cc4cccc(Cl)c4F)CC3)n2)n[nH]1 [SK5527-CRBi] |  |  |  |  |  |  |  |  |  |  |  |  |  |  |  | failed to destabilize MYCN | ~500 nM |  | failed to degrade AURKA | inability to bind
